Reference: ChEMBL document CHEMBL3804814, “Quinazolines and quinazolinones as ubiquitous structural fragments in medicinal chemistry: An update on the development of synthetic methods and pharmacological diversification” (Bioorg Med Chem, 2016)

Tests used:
Thymidine phosphorylase = Thymidine phosphorylase (Escherichia coli K-12, UniProt P07650); experiment: Inhibition of recombinant Escherichia coli thymidine phosphorylase using thymidine as substrate measured after 10 mins at 30 degC by spectrophotometric method
Thymidine phosphorylase, sequence (P07650 whole entry): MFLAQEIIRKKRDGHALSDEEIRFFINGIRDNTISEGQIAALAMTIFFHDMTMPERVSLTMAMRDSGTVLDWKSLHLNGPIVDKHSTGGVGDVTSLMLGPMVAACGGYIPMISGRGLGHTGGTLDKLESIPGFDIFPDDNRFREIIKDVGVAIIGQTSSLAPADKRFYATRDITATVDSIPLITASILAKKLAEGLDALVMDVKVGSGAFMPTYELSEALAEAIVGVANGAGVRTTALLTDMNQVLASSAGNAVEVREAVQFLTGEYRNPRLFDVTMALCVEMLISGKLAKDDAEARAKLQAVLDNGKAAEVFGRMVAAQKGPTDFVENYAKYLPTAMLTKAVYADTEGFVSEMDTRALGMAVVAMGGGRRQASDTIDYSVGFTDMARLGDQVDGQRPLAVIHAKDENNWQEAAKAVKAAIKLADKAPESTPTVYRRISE

HepG2 [1] = experiment: Potency index, ratio of doxorubicin IC50 to compound IC50 for anticancer activity against human HepG2 cells after 48 hrs by SRB assay; assay type: functional
[2] = Anticancer activity against human HCT116 cells measured after 48 hrs by SRB assay; assay type: functional, cell-based; details: hct-116
HepG2 [3] = experiment: Cytotoxicity against human HepG2 cells measured after 48 hrs by SRB assay; assay type: functional, cell-based
Cavia porcellus = organism: Cavia porcellus; experiment: Antihistaminic activity in guinea pigs assessed as supression of histamine induced bronchospasm
Mus musculus = organism: Mus musculus; experiment: Anticonvulsant activity in mouse assessed as reduction in MES-induced seizures by maximal electroshock seizure test; assay type: functional
[4] = Protective index, ratio of neurotoxicity in mouse to anticonvulasnt activity for MES-induced seizure mouse model; assay type: toxicity, organism-based; details: in vivo, read-out: PI
[5] = target: Epidermal growth factor receptor (Homo sapiens) (UniProt P00533); experiment: Inhibition of EGFR-TK receptor (unknown origin); details: concentration not given here
Epidermal growth factor receptor (Homo sapiens), sequence (P00533 whole entry): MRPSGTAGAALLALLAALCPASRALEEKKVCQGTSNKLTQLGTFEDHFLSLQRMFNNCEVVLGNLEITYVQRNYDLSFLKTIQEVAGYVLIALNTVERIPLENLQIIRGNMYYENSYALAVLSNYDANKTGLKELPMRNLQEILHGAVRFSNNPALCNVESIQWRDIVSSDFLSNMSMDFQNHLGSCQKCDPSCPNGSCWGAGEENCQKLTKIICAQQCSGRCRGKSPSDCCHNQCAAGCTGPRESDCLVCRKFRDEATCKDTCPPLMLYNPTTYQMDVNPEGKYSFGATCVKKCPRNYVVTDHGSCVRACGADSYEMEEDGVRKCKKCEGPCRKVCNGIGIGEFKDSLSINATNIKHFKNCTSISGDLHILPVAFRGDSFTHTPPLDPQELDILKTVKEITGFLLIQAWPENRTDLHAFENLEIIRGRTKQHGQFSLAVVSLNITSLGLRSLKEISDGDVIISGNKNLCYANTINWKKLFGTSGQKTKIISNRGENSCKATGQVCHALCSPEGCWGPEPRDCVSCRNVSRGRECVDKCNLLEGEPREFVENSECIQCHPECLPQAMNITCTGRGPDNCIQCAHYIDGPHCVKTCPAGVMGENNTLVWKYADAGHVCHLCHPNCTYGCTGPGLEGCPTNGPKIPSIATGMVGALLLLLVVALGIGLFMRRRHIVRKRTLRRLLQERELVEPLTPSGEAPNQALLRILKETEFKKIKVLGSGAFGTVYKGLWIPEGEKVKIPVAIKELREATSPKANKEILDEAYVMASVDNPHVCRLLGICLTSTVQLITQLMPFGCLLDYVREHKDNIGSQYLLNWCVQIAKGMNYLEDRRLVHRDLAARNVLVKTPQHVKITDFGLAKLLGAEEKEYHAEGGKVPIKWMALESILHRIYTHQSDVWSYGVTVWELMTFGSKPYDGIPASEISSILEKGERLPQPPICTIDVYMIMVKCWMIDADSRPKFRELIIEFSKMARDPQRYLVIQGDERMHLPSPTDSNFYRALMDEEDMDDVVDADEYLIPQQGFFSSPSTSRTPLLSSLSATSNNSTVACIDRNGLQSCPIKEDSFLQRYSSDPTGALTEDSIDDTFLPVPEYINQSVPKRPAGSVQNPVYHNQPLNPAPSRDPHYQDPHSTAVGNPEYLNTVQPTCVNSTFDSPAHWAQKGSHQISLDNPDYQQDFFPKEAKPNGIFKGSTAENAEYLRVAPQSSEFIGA

Plasmodium berghei [6] = experiment: Antimalarial activity against chloroquine-sensitive Plasmodium berghei ANKA infected Swiss albino mouse assessed as suppression of parasitemia at 16.59 mg/kg administered for 4 consecutive days measured on 5th day by Giemsa staining based microscopic method; assay type: functional
Plasmodium berghei [7] = experiment: Antimalarial activity against chloroquine-sensitive Plasmodium berghei ANKA infected Swiss albino mouse assessed as mean survival time at 16.59 mg/kg administered for 4 consecutive days; assay type: functional
[8] = target: T1, Cathepsin H (Capra hircus) (UniProt A0A060INS8); experiment: Inhibition of goat cathepsin H at 750 uM in presence of Leu-beta-NA after 30 mins by colorimetric method
T1 sequence (whole entry): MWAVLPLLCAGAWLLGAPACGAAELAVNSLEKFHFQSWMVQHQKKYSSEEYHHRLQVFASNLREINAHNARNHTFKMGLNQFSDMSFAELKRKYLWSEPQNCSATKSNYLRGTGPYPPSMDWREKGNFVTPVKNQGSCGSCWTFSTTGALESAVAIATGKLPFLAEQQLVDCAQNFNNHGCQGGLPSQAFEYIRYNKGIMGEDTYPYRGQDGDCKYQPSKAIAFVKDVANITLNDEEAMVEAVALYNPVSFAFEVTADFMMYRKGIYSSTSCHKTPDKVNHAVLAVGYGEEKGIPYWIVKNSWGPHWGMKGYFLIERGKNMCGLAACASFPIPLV

[9] = target: T1, Cathepsin H (Capra hircus); experiment: Inhibition of goat cathepsin H at 10 uM in presence of Leu-beta-NA after 30 mins by colorimetric method
[10] = Anticancer activity against human NCI lung cancer cell by MTT assay; assay type: functional, cell-based; details: Cancer cell lines
[11] = target: Epidermal growth factor receptor (Homo sapiens) (UniProt P00533); experiment: Inhibition of EGFR-tyrosine kinase (unknown origin) at 10 uM measured after 2 hrs by kinase-glo plus luminescence kinase assay
[12] = target: Cathepsin B (Capra hircus) (UniProt H9B8T9); details: 100 nM
Description: Inhibition of goat cathepsin B at 100 nM in presence of BANA after 30 mins by colorimetric method

[13] = target: Cathepsin B (Capra hircus) (UniProt H9B8T9); details: 25 uM
Description: Inhibition of goat cathepsin B at 25 uM in presence of BANA after 30 mins by colorimetric method

[14] = Cytotoxicity against human lymphocytes measured after 72 hrs by MTT assay; assay type: cell-based; details: Lymphocyte
HT-29 = experiment: Anticancer activity against human HT-29 cells measured after 72 hrs by MTT assay; assay type: functional, cell-based; details: HT-29, 72 h
[15] = Anticancer activity against human HCT116 cells measured after 72 hrs by MTT assay; assay type: functional, cell-based; details: HCT-116, 72 h
Plasmodium berghei [16] = experiment: Antimalarial activity against chloroquine-sensitive Plasmodium berghei ANKA infected Swiss albino mouse assessed as parasitemia at 18.73 mg/kg administered for 4 consecutive days measured on 5th day by Giemsa staining based microscopic method; assay type: functional
Plasmodium berghei [17] = experiment: Antimalarial activity against chloroquine-sensitive Plasmodium berghei ANKA infected Swiss albino as mean survival time at 18.73 mg/kg administered for 4 consecutive days; assay type: functional
Plasmodium berghei [18] = experiment: Antimalarial activity against chloroquine-sensitive Plasmodium berghei ANKA infected Swiss albino mouse assessed as suppression of parasitemia at 18.73 mg/kg administered for 4 consecutive days measured on 5th day by Giemsa staining based microscopic method; assay type: functional

`O=c1[nH]c(-c2cc(O)ccc2O)nc2ccccc12` showed an IC50 (Thymidine phosphorylase) of 59.5 µM.

In the case of `COc1ccc(-c2cc(-c3ccc(-n4c(-c5ccco5)nc5ccccc5c4=O)cc3)[nH]c(=N)c2C#N)cc1`, the “Ratio IC50” value (HepG2 [1]) is reported as 4, the IC50 [2] is reported as 0.2 µM and the IC50 (HepG2 [3]) is reported as 6.6 µM.

For `O=c1[nH]c(-c2ccc(O)c(O)c2)nc2ccccc12`, the IC50 (Thymidine phosphorylase) was 42.9 µM.

With `Cc1nnc2n(-c3cccc(Cl)c3)c(=O)c3ccccc3n12` the “inhibition (INH)” value (Cavia porcellus) was 69.65%.

In the case of `O=c1c2ccccc2nc(-n2cncn2)n1-c1ccc(Cl)cc1`, the ED50 (Mus musculus) is reported as 88 mg/kg and the selectivity ratio [4] is reported as > 25.5.

`Cc1ccc(-c2cc(-c3ccc(-n4c(-c5ccco5)nc5ccccc5c4=O)cc3)[nH]c(=N)c2C#N)cc1` gave an IC50 [2] of 1.2 µM and an IC50 (HepG2 [3]) of 6.7 µM.

`O=C(/C=C/c1ccccc1)c1ccc(-n2c(-c3ccco3)nc3ccccc3c2=O)cc1` showed an inhibition [5] of 84%.

`COc1cccc2c1C(=O)c1c(O)c3c(c(O)c1C2=O)C[C@@](O)(C(=O)CO)C[C@@H]3O[C@H]1C[C@H](N)[C@H](O)[C@H](C)O1` [DOXORUBICIN] gave an IC50 [2] of 4.8 µM and an IC50 (HepG2 [3]) of 5.7 µM.

For `O=c1c2ccccc2nc(/C=C/c2ccc(O)cc2)n1-c1ccccc1`, the inhibition in vivo at 16.59 mg/kg (Plasmodium berghei [6]) was 67.6% and the MST (Plasmodium berghei [7]) was 8.3 days.

`O=C1NC(c2ccc(F)cc2)Nc2ccccc21` (configuration not stated) gave an inhibition [8] of 50% and an inhibition [9] of 100%.

`Cc1cc(C)nc(NS(=O)(=O)c2ccc(-n3c(C)nc4ccc(F)cc4c3=O)cc2)n1` gave an IC50 [10] of 2.51 µM.

Work on `CN(Cc1cnc2nc(N)nc(N)c2n1)c1ccc(C(=O)N[C@@H](CCC(=O)O)C(=O)O)cc1` [METHOTREXATE] yielded an IC50 [10] of 2.4 µM.

With `N#CC1=C(N)OC(c2ccc(-n3c(-c4ccco4)nc4ccccc4c3=O)cc2)=CC1c1ccc(Cl)cc1` (configuration not stated) the “Ratio IC50” value (HepG2 [1]) was 24 and the inhibition [11] was 95.6%.

`Cc1ccc(C2NC(=O)c3ccccc3N2)cc1` (configuration not stated) showed an inhibition [12] of 50% and an inhibition [13] of 100%.

Work on `O=c1c2cc(N3CCN(c4ccccc4F)CC3)ccc2ncn1Cc1ccccc1` yielded an IC50 [14] of 197 µM, an IC50 (HT-29) of 50.9 µM and an IC50 [15] of 46 µM.

For `CN(C)CCC(c1ccc(Cl)cc1)c1ccccn1.O=C(O)/C=C\C(=O)O` (configuration not stated) [CHLORPHENIRAMINE MALEATE], the “inhibition (INH)” value (Cavia porcellus) was 70.09%.

Work on `COc1cc(/C=C/c2nc3ccccc3c(=O)n2-c2ccccc2C)ccc1O` yielded an Activity (Plasmodium berghei [16]) of 17.71%, an MST (Plasmodium berghei [17]) of 9.2 days and an inhibition in vivo at 18.73 mg/kg (Plasmodium berghei [18]) of 72.9%.

In the case of `O=c1c2ccccc2nc(-n2cncn2)n1-c1cccc(Br)c1`, the ED50 (Mus musculus) is reported as 94.6 mg/kg and the selectivity ratio [4] is reported as > 26.
